Here are results for 18 compounds from PubChem BioAssay (NCI).

Holding throughout (assay): inhibition of tumour cell growth, NCI panel, 48 h
Assay [1] deals with MCF7 breast.
Assay [2] concerns DU-145 prostate.
In assay [3] the test system is NCI-H460 lung.
The test system of assay [4] is HCC-2998 colon.
Assay [5] has as its system CAKI-1 renal.
Assay [6] relates to OVCAR-8 ovarian.
The test system of assay [7] is COLO 205 colon.
Assay [8] deals with HCT-15 colon.
Assay [9] deals with NCI-H23 lung.
The test system of assay [10] is M14 melanoma.

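Method: 48-hour compound exposure of cells in 96-well plates, five concentrations, linear interpolation of endpoints. GI50 is the concentration that inhibits growth by half. The concentration for full growth arrest is given as TGI.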 Bounds are passed on as bounds.

In the case of `c1cc2c(ncc3cscc32)s1`, the TGI in assay [1], in [2], in [3], in assay [4], in [5] and in assay [6] was more than 100 µM each time. Further, the TGI in assay [7], in [8], in assay [9] and in assay [10] was more than 100 µM throughout.

Take `Cc1ccc(NC(=O)c2sc3nc(C)c(C(O)c4ccccc4)cc3c2N)cc1` (stereo not given): the GI50 is 0.368 µM in assay [1]; 0.391 µM in assay [2]; 0.359 µM in [3]; 0.818 µM in assay [4]; 0.45 µM in assay [5]; 0.611 µM in assay [6]. Further, the GI50 was 0.573 µM in [7], 0.397 µM in assay [8], 0.722 µM in [9] and 0.284 µM in [10]. The TGI in assay [1] was more than 57.6 µM; in assay [2], 16.8 µM; in [3], 5.32 µM; in [4], 5.73 µM; in [5] it was 25.9 µM; in assay [6] it was more than 100 µM. The TGI in [7] was more than 21.8 µM; in assay [8], more than 73 µM; in assay [9], more than 100 µM; in assay [10] it was 26.1 µM.

`Cc1nc(-c2ccccc2)c(-c2ccccc2)s1`: the TGI in [1] was 62.3 µM; in assay [2], more than 100 µM; in [3], 42.2 µM; in assay [4] it was 25.3 µM; in assay [5] it was 62.3 µM; in [6], more than 100 µM. Also, the TGI in [7] amounted to 38.8 µM; in assay [8], 39 µM; in [9], 97.7 µM; in assay [10], 41.1 µM.

As to `CC[CH2][Sn]([Cl])([Cl])[CH2]CC.Oc1ccccc1C=NCCN=Cc1ccccc1O`, the GI50 in assay [1] is 3.12 µM; in [2] it was 12.1 µM; in assay [3], 15.6 µM; in assay [4], 11.1 µM; in assay [5] it was 2.46 µM; in [6], 12.3 µM. In addition, the GI50 was 2.97 µM in [7], 9.63 µM in [8], 6.62 µM in assay [9] and 5.49 µM in assay [10]. For the same compound, the TGI was 15.8 µM in assay [1]; 24.6 µM in assay [2]; 33 µM in [3]; 23.8 µM in [4]; 12.7 µM in [5]; 27.7 µM in [6]. Moreover, the TGI turned out to be 10.1 µM in assay [7], 24.8 µM in [8], 20.5 µM in assay [9] and 19.3 µM in assay [10].

Turning to `Cn1cnc([N+](=O)[O-])c1[Se]c1nc(N)nc2c1ncn2C1OC(CO)C(O)C1O` (stereo not given), the TGI in assay [1], in [2], in [3], in assay [4], in assay [5] and in assay [6] was more than 100 µM each time. The TGI in assay [7], in assay [8], in assay [9] and in assay [10] was more than 100 µM in each case.

Regarding `COc1ccc(-c2nnc(COc3ccc(NC(=O)Nc4ccc(Cl)c(C(F)(F)F)c4)cc3F)o2)cc1`, the GI50 in assay [1] was 3.03 µM; in assay [2] it was 3.1 µM; in assay [3], 2.26 µM; in assay [4], 4.86 µM; in [5], 4.07 µM; in assay [6], 3.12 µM. Also, the GI50 in assay [7] is 2.02 µM; in assay [8], 2.74 µM; in [9] it was 3.12 µM; in assay [10], 3.13 µM. For the same compound, the TGI in [1] turned out to be 14.3 µM; in assay [2] it was 11.1 µM; in assay [3], 5.56 µM; in assay [4], 53.1 µM; in assay [5], 29.2 µM; in assay [6], 15.8 µM. Also, the TGI in assay [7] was 5.06 µM; in assay [8], 33 µM; in [9] it was 14.6 µM; in [10], 16.5 µM.

Turning to `COc1cc2c(c(OC)c1OC)-c1c(cc3c(c1OC)OCO3)C1OC2C(C)C1C` (stereo not given) (tested in a mixture with another compound), the TGI in assay [1], in assay [2], in assay [3], in assay [4], in [5] and in assay [6] was more than 100 µM in each case. Also, the TGI in assay [7], in assay [8], in assay [9] and in assay [10] was more than 100 µM each time.

On to `CS(=O)(=O)c1cc(=O)c2ccccc2s1`, for which the TGI came out at 8.18 µM in assay [1]; 33.3 µM in [2]; 41.2 µM in assay [3]; 30.5 µM in assay [4]; 4.49 µM in assay [5]; 6.22 µM in assay [6]. Further, the TGI worked out at 3.26 µM in assay [7], 4.86 µM in assay [8], 24.7 µM in assay [9] and 3.44 µM in [10].

Consider `CN1C(=O)c2ccccc2NC(=O)C12O[C@@H]2c1cccc(O)c1` (stereo not given in full), for which the TGI in [1], in assay [2], in assay [3], in assay [4], in assay [5] and in assay [6] was more than 100 µM each time. In addition, the TGI in assay [7], in assay [8], in assay [9] and in assay [10] was more than 100 µM each time.

On to `COc1ccc(OC)c(C(=O)c2oc3ccc(Br)cc3c2N)c1`, for which the GI50 was 0.289 µM in assay [1]; 0.604 µM in assay [2]; 0.375 µM in [3]; 1.32 µM in [4]; 0.372 µM in assay [5]; 0.576 µM in [6]. Also, the GI50 in [7] was 0.406 µM; in [8], 0.214 µM; in assay [9], 0.649 µM; in [10] it was 0.303 µM. The TGI was more than 48.2 µM in assay [1]; 17.3 µM in assay [2]; 12.4 µM in [3]; 12.8 µM in assay [4]; more than 100 µM in assay [5]; 97.9 µM in assay [6]. For the same compound, the TGI in assay [7] was 2.11 µM; in assay [8] it was 14.2 µM; in assay [9], 24 µM; in assay [10], 16.3 µM.

In the case of `COc1cc(NS(=O)(=O)c2ccc(-c3cnc(C4CC4)o3)cc2)ccc1F`, the GI50 was 0.201 µM in assay [1]; 0.765 µM in assay [2]; 0.447 µM in assay [3]; 1.09 µM in assay [4]; 0.408 µM in assay [5]; 0.745 µM in assay [6]. In addition, the GI50 in assay [7] is 0.506 µM; in assay [8], 0.198 µM; in [9] it was 0.989 µM; in [10] it was 0.269 µM. Also, the TGI in [1] was determined as 22.9 µM; in assay [2], 58.9 µM; in [3] it was 14.4 µM; in assay [4], 12.7 µM; in assay [5], 30.6 µM; in assay [6], 56.5 µM. In addition, the TGI in assay [7] came out at 9.57 µM; in assay [8], 17.1 µM; in [9], 21.4 µM; in assay [10], 14.8 µM.

Turning to `COc1ccccc1Cn1cc2c(c1-c1ccccc1)CCc1cnoc1-2`, the GI50 in [1] was 2.33 µM; in assay [2], 2.76 µM; in assay [3] it was 2.65 µM; in assay [4], 5.48 µM; in [5], 1.86 µM; in [6] it was 6.22 µM. In addition, the GI50 was 2.56 µM in assay [7], 1.71 µM in assay [8], 3.36 µM in [9] and 2.06 µM in assay [10]. In addition, the TGI was more than 100 µM in [1]; 12.1 µM in [2]; 18.1 µM in assay [3]; more than 100 µM in [4]; more than 100 µM in assay [5]; more than 100 µM in assay [6]. Further, the TGI is 7.62 µM in assay [7], more than 100 µM in [8], 74 µM in assay [9] and 17.3 µM in [10].

As to `Cc1ccc(NC(=O)NCCCOc2ccc(N3C(N)=NC(N)=NC3(C)C)cc2Cl)cc1S(=O)(=O)F`, the GI50 is 4.93 µM in [1]; 6.04 µM in assay [2]; 1.68 µM in [3]; 21.5 µM in assay [4]; 70 µM in assay [5]; 7.85 µM in [6]. Also, the GI50 in assay [7] was 13.6 µM; in assay [8], more than 100 µM; in assay [9], 5 µM; in assay [10], 7.81 µM. In addition, the TGI in assay [1], in assay [2], in [3], in assay [4], in assay [5] and in [6] was more than 100 µM in each case. In addition, the TGI was 95.7 µM in assay [7], more than 100 µM in [8], more than 100 µM in assay [9] and more than 100 µM in assay [10].

`COc1cc2c3c(n(C)c(=O)c2cc1OC)-c1cc2c(cc1/C3=C\CNCCCN)OCO2`: the GI50 was 1.04 µM in assay [1]; 1.15 µM in [2]; 0.75 µM in assay [3]; 0.501 µM in assay [4]; 0.848 µM in assay [5]; 0.13 µM in assay [6]. Further, the GI50 in assay [7] is 0.232 µM; in [8], 3.13 µM; in assay [9], 0.437 µM; in assay [10], 0.585 µM. For the same compound, the TGI was 16.5 µM in assay [1]; 12.8 µM in assay [2]; 12.9 µM in [3]; 1.99 µM in assay [4]; 16 µM in [5]; 1.05 µM in assay [6]. The TGI in assay [7] is 8.71 µM; in assay [8] it was 17.7 µM; in [9] it was 3.15 µM; in [10], 5.31 µM.

In the case of `CCC(=O)c1c(C(F)(F)F)n([O-])c2ccc(C)cc2[n+]1=O`, the GI50 in [1] was 6.29 µM; in assay [2] it was 5.99 µM; in assay [3] it was 3.95 µM; in assay [4], 5.92 µM; in assay [5] it was 5.78 µM; in [6], 2.83 µM. Also, the GI50 in assay [7] was 5.24 µM; in assay [8] it was 3.05 µM; in [9] it was 1.2 µM; in assay [10], 15.3 µM. Also, the TGI in assay [1] is 40.5 µM; in assay [2], 16.6 µM; in [3] it was 18.3 µM; in assay [4] it was 21.9 µM; in assay [5] it was 16.2 µM; in assay [6] it was more than 50 µM. Moreover, the TGI in [7] was 19.6 µM; in assay [8], more than 50 µM; in [9], 6.1 µM; in [10] it was more than 50 µM.

On to `C=C1C(=O)O[C@H]2[C@H]1CC/C(COC(=O)c1cc3ccccc3s1)=C\CC[C@@]1(C)O[C@@H]21`, for which the GI50 in assay [1] was 0.389 µM; in assay [2] it was 1.05 µM; in assay [3], 2.2 µM; in assay [4], 1.75 µM; in assay [5], 1.46 µM; in assay [6] it was 1.8 µM. Besides, the GI50 in assay [7] was 1.71 µM; in [8], 0.4 µM; in assay [9], 1.74 µM; in assay [10], 1.75 µM. For the same compound, the TGI in assay [1] is 2.02 µM; in assay [2] it was 2.3 µM; in assay [3] it was 5.55 µM; in [4], 3.23 µM; in assay [5], 2.99 µM; in [6] it was 5.14 µM. Further, the TGI in [7] came out at 3.48 µM; in [8] it was 1.79 µM; in [9], 3.84 µM; in assay [10], 4.24 µM.

Take `O=c1[nH]c(=O)n(C2OC(CO)C(O)C(O)C2O)cc1F` (stereo not given): the TGI in assay [1], in assay [2], in [3], in [4], in assay [5] and in assay [6] was more than 100 µM in each case. Moreover, the TGI in assay [7], in assay [8], in assay [9] and in assay [10] was more than 100 µM in each case.

For `Cc1ccc2[nH]c(C(=O)NN3C(=O)C(C)SC34CCCC(C)C4)c(-c3ccccc3)c2c1` (stereo not given), the GI50 in [1] was 32.7 µM; in assay [2] it was more than 100 µM; in assay [3], 83.3 µM; in assay [4] it was 76.6 µM; in [5] it was 95.5 µM; in [6], 34.5 µM. Moreover, the GI50 in assay [7] was 94.1 µM; in assay [8] it was 87 µM; in [9], more than 100 µM; in assay [10], more than 100 µM. Also, the TGI in assay [1], in assay [2], in assay [3], in assay [4], in assay [5] and in [6] was more than 100 µM in each case. Besides, the TGI in [7], in [8], in [9] and in assay [10] was more than 100 µM in each case.
